According to US20210198201A1, “Orally Active Melanocortin Receptor-4 Compounds” (Palatin Technologies, Inc., priority 2018, published 2021):
Marks after values point to notes of the source that are not given here.

Tests used:
MC4r [1] = biological target: T1, MC4r (Homo sapiens, UniProt P32245); assay: cAMP functional study in human MC4r expression system approximating maximal physiologic receptor densities; type: cell-based; parameters: host or cells: TREx-293; settings: low receptor density human MC4r system; for Emax: read-out: relative efficacy, compared to NDP-α-MSH
Protocol: Assay for Agonist Activity. Accumulation of intracellular cAMP was examined as a measure of the ability of the peptides of the present invention to elicit a functional response in HEK-293 cells that express MC4-R. Confluent HEK-293 cells that express recombinant hMC4-R were detached from culture plates by incubation in enzyme-free cell dissociation buffer. Dispersed cells were suspended in Hanks' Balanced Salt Solution containing 10 mM HEPES (pH 7.5), 1 mM MgCl2, 1 mM glutamine, 0.5% albumin and 0.3 mM 3-isobutyl-1-methyl-xanthine (IBMX), a phosphodiesterase inhibitor. The cells were plated in 96-well plates at a density of 0.5×10^5 cells per well and pre-incubated for 10 minutes. Cells were exposed for 15 minutes at 37° C. to peptides of the present invention dissolved in DMSO (final DMSO concentration of 1%) at a concentration range of 0.05-5000 nM in a total assay volume of 200 μL. NDP-α-MSH was used as the reference agonist. cAMP levels were determined by an HTRF® cAMP cell-based assay system from Cisbio Bioassays utilizing cryptate-labeled anti-cAMP and d2-labeled cAMP, with plates read on a Perkin-Elmer Victor plate reader at […]. Data analysis was performed by nonlinear regression analysis with Graph-Pad Prism® software. The maximum efficacies of the test peptides of the present invention were compared to that achieved by the reference melanocortin agonist NDP-αMSH.
Low Receptor Density Systems. In functional studies preferably a human MC4r expression system approximating maximal human physiologic receptor densities is employed. In one aspect, a tetracycline-regulated mammalian expression system that uses regulatory elements from the E. coli Tn10-encoded tetracycline (Tet) resistance operon was employed (T-REx™ System, Invitrogen). By use of the T-REx™ System, expression of the gene of interest, the human MC4-R gene, was repressed in the absence of tetracycline or doxycycline and induced in the presence of tetracycline or doxycycline, with receptor density being dependent on the concentration of tetracycline or doxycycline. See generally Yao F. et al: Tetracycline repressor, tetR, rather than the tetR-mammalian cell transcription factor fusion derivatives, regulates inducible gene expression in mammalian cells. Hum. Gene Ther. 9:1939-1950 (1998), incorporated here by reference. Regulation was based on the binding of tetracycline or doxycycline, a derivative of tetracycline, to the Tet repressor and derepression of the promoter controlling expression of the human MC4-R gene. In general tetracycline or related regulators, such as tetracycline-derivatives, may be used to induce the gene expression. An inducible expression plasmid for expression of human MC4-R gene under the control of the strong human cytomegalovirus immediate-early (CMV) promoter and two tetracycline operator 2 (TetO2) sites was employed, together with a regulatory plasmid, pcDNA6/TR, which encodes the Tet repressor (TetR) under the control of the human SV40 promoter. Thus, expression of the human MC4-R gene from the inducible expression vector was controlled by the strong CMV promoter into which 2 copies of the tet operator 2 (TetO2) sequence had been inserted in tandem. The TetO2 sequences consisted of 2 copies of 19-nucleotide sequence separated by a 2 base pair spacer. Each 19 nucleotide TetO2 sequence served as the binding site for 2 molecules of the Tet repressor. The expression vector pcDNA4/TO/MC4R was introduced into TREx-293 (Invitrogen, R710-07), a cell line stably expressing the tetracycline repressor pcDNA6/TR using lipofectamin 2000 reagent (Invitrogen, 11668-019). Alternatively, both the expression vector and repressor are introduced into host cells by standard transformation or transfection methods.

MC4r [2] = biological target: T1, MC4r; assay: Competitive inhibition binding assay, MC4r; parameters: expressed in transfected cells; host or cells: HEK-293 (membrane homogenates); settings: binding studies
Protocol: (§1) A competitive inhibition binding assay is performed using membrane homogenates prepared from HEK-293 cells that express recombinant hMC1ra, hMC4r, hMC3r, or hMC5r, and from B16-F10 mouse melanoma cells (containing endogenous MC1r). In the examples that follow, all values are for human recombinant receptors unless otherwise noted. Assays are performed in 96 well GF/B Millipore multiscreen filtration plates (MAFB NOB10) pre-coated with 0.5% bovine serum albumin (Fraction V). […] After incubation for 60 to 90 minutes at 37° C., the assay mixture is filtered and the membranes washed three times with ice-cold buffer. Filters are dried and counted in a gamma counter for bound radioactivity.
(§2) Maximal specific binding (100%) is defined as the difference in radioactivity (cpm) bound to cell membranes in the absence and presence of 1 μM NDP-α-MSH. […] Each assay is conducted in duplicate or triplicate and the actual mean values are described, with results less than 0% reported as 0%. Ki values for test compounds are determined using Graph-Pad Prism® curve-fitting software.
Competitive Binding Assay Using Eu-NDP-α-MSH. Alternatively, a competitive inhibition binding assay is performed employing Eu-NDP-α-MSH (PerkinElmer Life Sciences catalog No. AD0225) with determination by time-resolved fluorometry (TRF) of the lanthanide chelate. […] After incubation for 90 minutes at 37° C., the reaction was stopped by filtration over Acro Well 96-well filter plates (Pall Life Sciences). The filter plates were washed 4 times with 200 μL of ice-cold phosphate-buffered saline. DELFIA Enhancement solution (PerkinElmer Life Sciences) was added to each well. The plates were incubated on a shaker for 15 minutes and read at 340 nm excitation and 615 nm emission wavelengths. Each assay was conducted in duplicate and mean values were utilized. Ki values were determined by curve-fitting with Graph-Pad Prism® software using a one-site fixed-slope competition binding model.

MC1r = biological target: T2, MC1r (Homo sapiens, UniProt Q01726); assay: Competitive inhibition binding assay, MC1r; settings: binding studies
T2 construct: expressed in transfected cells; host or cells: HEK-293 (membrane homogenates)
Protocol: as §1, §2

C57BL/6 male DIO mice = assay: Body weight and food intake in vivo study in diet induced obese mice; parameters: species or system mouse; settings: for Body Weight Change (%) Mean / Food Intake - 24 Hours (g) Mean: 1 mg/kg subcutaneous twice daily
Protocol: Compound 7.1 was assessed in a body weight and food intake in vivo study in diet induced obese […] mice. C57BL/6 male DIO mice were utilized, that were 17 weeks of age on arrival. Animals were pre-conditioned on a high-fat diet for 11 weeks by Jackson Labs. […] Animals were single housed within a limited access rodent facility, and provided ad libitum with a commercial rodent diet and free access to drinking water. Animals were randomized into five groups, a vehicle group, three dose levels of compound 7.1 (3 mg/kg, 10 mg/kg and 30 mg/kg), and Peptide A, a positive control cyclic peptide of the formula Ac-Arg-cyclo(Orn-Asn-D-Phe-Arg-Trp-Glu)-NH2. Following three days of sham dosing, animals were dosed for three days, with vehicle or Compound 7.1 dosed orally once daily at within one hour of lights out in the AM, and Peptide A dosed by subcutaneous injection twice daily within one hour before lights out and six hours after lights out. Body weights were measured one hour prior to lights out, and feed weights were measured both one hour prior to lights out and six hours post lights out.
*p<0.05 vs. sham (vehicle control) using two-way ANOVA followed by Dunnett's post-test.
**p<0.01 vs sham (vehicle control) using two-way ANOVA followed by Dunnett's post-test.

T1 sequence (P32245 whole entry): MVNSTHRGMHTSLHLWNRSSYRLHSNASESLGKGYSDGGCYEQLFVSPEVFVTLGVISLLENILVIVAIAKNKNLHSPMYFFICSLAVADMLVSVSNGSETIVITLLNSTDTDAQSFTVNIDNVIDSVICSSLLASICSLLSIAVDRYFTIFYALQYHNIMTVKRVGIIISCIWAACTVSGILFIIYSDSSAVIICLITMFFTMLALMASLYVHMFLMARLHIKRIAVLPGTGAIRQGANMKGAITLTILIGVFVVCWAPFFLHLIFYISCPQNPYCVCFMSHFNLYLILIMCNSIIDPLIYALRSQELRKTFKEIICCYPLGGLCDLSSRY
T2 sequence (Q01726 whole entry): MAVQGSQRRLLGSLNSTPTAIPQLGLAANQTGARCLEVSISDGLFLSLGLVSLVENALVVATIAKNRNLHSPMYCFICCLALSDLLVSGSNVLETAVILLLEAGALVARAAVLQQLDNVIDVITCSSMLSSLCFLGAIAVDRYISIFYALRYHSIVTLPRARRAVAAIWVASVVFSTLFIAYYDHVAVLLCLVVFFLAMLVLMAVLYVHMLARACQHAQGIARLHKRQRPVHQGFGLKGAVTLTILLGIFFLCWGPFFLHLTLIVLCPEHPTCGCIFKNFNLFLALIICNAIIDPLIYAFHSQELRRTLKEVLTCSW

Emax (MC4r [1])	Ki (MC4r [2])	EC50 (MC4r [1])	Compound	further results
10%	4 nM		CC(=O)N1CCC(N(CC(C)C)N2CCN(C(=O)[C@@H](Cc3ccc(Cl)cc3)NC(=O)C3(N)CCCC3)CC2)CC1 [Compound 7.4, N-[(1R)-2-[4-[(1-acetyl-4-piperidyl)-isobutyl-amino]piperazin-1-yl]-1-[(4-chlorophenyl)methyl]-2-oxo-ethyl]-1-amino-cyclopentanecarboxamide]	
8%	3 nM		CC(=O)N1CCC(N(CC(C)C)N2CCN(C(=O)[C@@H](Cc3ccc(Cl)cc3)NC(=O)C3(N)CCCCCC3)CC2)CC1 [Compound 7.7, N-[(1R)-2-[4-[(1-acetyl-4-piperidyl)-isobutyl-amino]piperazin-1-yl]-1-[(4-chlorophenyl)methyl]-2-oxo-ethyl]-1-amino-cycloheptanecarboxamide]	
28%	6 nM	52 nM	CCNC(=O)N1CCC(N(CC(C)C)N2CCN(C(=O)[C@@H](Cc3ccc(Cl)cc3)NC(=O)C(C)(C)N)CC2)CC1 [Compound 7.8, 4-[[4-[(2R)-2-[(2-amino-2-methyl-propanoyl)amino]-3-(4-chlorophenyl)propanoyl]piperazin-1-yl]-isobutyl-amino]-N-ethyl-piperidine-1-carboxamide]	Ki (MC1r): 150 nM
			CNC(C)(C)C(=O)N[C@H](Cc1ccc(Cl)cc1)C(=O)N1CCN(N(CC(C)C)C2CCN(C(C)=O)CC2)CC1 [Compound 7.9, N-[(1R)-2-[4-[(1-acetyl-4-piperidyl)-isobutyl-amino]piperazin-1-yl]-1-[(4-chlorophenyl)methyl]-2-oxo-ethyl]-2-methyl-2-(methylamino)propanamide]	relative efficacy, compared to NDP-α-MSH (MC4r [1]): 19%
			Ac-Arg-cyclo(Orn-Asn-D-Phe-Arg-Trp-Glu)-NH2 [Peptide A]	Body Weight Change (%) Mean (C57BL/6 male DIO mice; Day 0): 0%; Food Intake - 24 Hours (g) Mean (C57BL/6 male DIO mice; Day 0, 24 hours post lights out): 0.99** g; Body Weight Change (%) Mean (C57BL/6 male DIO mice; Day 1): −5.69** %; Food Intake - 24 Hours (g) Mean (C57BL/6 male DIO mice; Day 1, 24 hours post lights out): 1.10** g; Body Weight Change (%) Mean (C57BL/6 male DIO mice; Day 2): −8.37** %; Food Intake - 24 Hours (g) Mean (C57BL/6 male DIO mice; Day 2, 24 hours post lights out): 1.67** g; Body Weight Change (%) Mean (C57BL/6 male DIO mice; Day 3): −8.78** %; effect on feed intake at 24 hours post lights out (in words) (C57BL/6 male DIO mice; 1 mg/kg, entirety of the study, compared with sham animals): significantly inhibited feed intake; effect on body weight (in words) (C57BL/6 male DIO mice; two times daily 1 mg/kg, throughout the study): decreased animal body weights
34%	13 nM	25 nM	CCC(N)(CC)C(=O)N[C@H](Cc1ccc(Cl)cc1)C(=O)N1CCN(N(CC(C)C)C2CCN(C(C)=O)CC2)CC1 [Compound 7.6, N-[(1R)-2-[4-[(1-acetyl-4-piperidyl)-isobutyl-amino]piperazin-1-yl]-1-[(4-chlorophenyl)methyl]-2-oxo-ethyl]-2-amino-2-ethyl-butanamide]	
15%	4 nM	9 nM	CC(=O)N1CCC(N(CC(C)C)N2CCN(C(=O)[C@@H](Cc3ccc(Cl)cc3)NC(=O)C3(N)CCCCC3)CC2)CC1 [Compound 7.5, N-[(1R)-2-[4-[(1-acetyl-4-piperidyl)-isobutyl-amino]piperazin-1-yl]-1-[(4-chlorophenyl)methyl]-2-oxo-ethyl]-1-amino-cyclohexanecarboxamide]	
22%	5 nM	9 nM	CC(C)CN(C1CCN(C(=O)CO)CC1)N1CCN(C(=O)[C@@H](Cc2ccc(Cl)cc2)NC(=O)C(C)(C)N)CC1 [Compound 7.10, 2-amino-N-[(1R)-1-[(4-chlorophenyl)methyl]-2-[4-[[1-(2-hydroxyacetyl)-4-piperidyl]-isobutyl-amino]piperazin-1-yl]-2-oxo-ethyl]-2-methyl-propanamide]	
13%	6 nM	6 nM	CC(=O)N1CCC(N(CC(C)C)N2CCN(C(=O)[C@@H](Cc3ccc(Cl)cc3)NC(=O)C3(C)CCCN3)CC2)CC1 (stereo partly drawn) [Compound 7.11, N-[(1R)-2-[4-[(1-acetyl-4-piperidyl)-isobutyl-amino]piperazin-1-yl]-1-[(4-chlorophenyl)methyl]-2-oxo-ethyl]-2-methyl-pyrrolidine-2-carboxamide]	
10%	3 nM		CC(=O)N1CCC(N(CC(C)C)N2CCN(C(=O)[C@@H](Cc3ccc(Cl)cc3)NC(=O)C3(N)CCC3)CC2)CC1 [Compound 7.3, N-[(1R)-2-[4-[(1-acetyl-4-piperidyl)-isobutyl-amino]piperazin-1-yl]-1-[(4-chlorophenyl)methyl]-2-oxo-ethyl]-1-amino-cyclobutanecarboxamide]	
3%	5 nM		CC(=O)N1CCC(N(CC(C)C)N2CCN(C(=O)[C@@H](Cc3ccc(Cl)cc3)NC(=O)C3(N)CC3)CC2)CC1 [Compound 7.2, N-[(1R)-2-[4-[(1-acetyl-4-piperidyl)-isobutyl-amino]piperazin-1-yl]-1-[(4-chlorophenyl)methyl]-2-oxo-ethyl]-1-amino-cyclopropanecarboxamide]	Ki (MC1r): 40 nM
